Active and inactive are the calls of the source. The calls are words filed in the database; no cut-off is given here.
What was measured:
Assay type in all cases: functional
MCF7 [1] = assay: Cytotoxicity against human MCF7 cells assessed as reduction in cell growth after 48 hrs by SRB assay
HT-29 = assay: Cytotoxicity against human HT-29 cells assessed as reduction in cell growth after 48 hrs by SRB assay
MCF7 [2] = assay: Cytotoxicity against human MCF7 cells assessed as reduction in cell viability after 72 hrs by MTS assay; conditions: MCF7, 72 h

| Structure (SMILES) | GI50 (MCF7 [1]) | GI50 (HT-29) | GI50 (MCF7 [1]; MCF7, 48 h) | GI50 (HT-29; HT-29, 48 h) | GI50 (MCF7 [2]) |
| --- | --- | --- | --- | --- | --- |
| COc1cc(Cc2c[nH]c3ccc(Br)cc23)c(N)c(OC)c1OC | inactive | inactive | – | – | – |
| COc1cc(C(=O)c2c[nH]c3ccccc23)c(N)c(OC)c1OC | – | – | 900 nM | 9800 nM | – |
| COc1cc(C(=O)c2c[nH]c3ccc(Cl)cc23)c(N)c(OC)c1OC | – | – | 321 nM | 4850 nM | – |
| COc1cc(C(=O)c2c[nH]c3c(OC)cccc23)c(N)c(OC)c1OC | – | – | 9960 nM | 48600 nM | – |
| COc1ccc2[nH]cc(C(=O)c3cc(OC)c(OC)c(OC)c3N)c2c1 | – | – | 528 nM | 950 nM | – |
| COc1cc(Cc2c[nH]c3ccc(C)cc23)c(N)c(OC)c1OC | inactive | inactive | – | – | – |
| COc1cc(Cc2c[nH]c3c(OC)cccc23)c(N)c(OC)c1OC | inactive | inactive | – | – | – |
| CCOC(=O)c1[nH]c2ccc(Br)cc2c1C(=O)c1cc(OC)c(OC)c(OC)c1N | – | – | 425 nM | 5380 nM | – |
| COc1cc(Cc2c[nH]c3cc(F)ccc23)c(N)c(OC)c1OC | inactive | inactive | – | – | – |
| COc1cc2[nH]cc(C(=O)c3cc(OC)c(OC)c(OC)c3N)c2cc1OC | – | – | 38400 nM | 24400 nM | – |
| COc1cc(Cc2c[nH]c3cccc(OC)c23)c(N)c(OC)c1OC | inactive | inactive | – | – | – |
| COC(=O)c1[nH]c2ccc(Cl)cc2c1C(=O)c1cc(OC)c(OC)c(OC)c1N | – | – | 171 nM | 2140 nM | – |
| COC(=O)c1[nH]c2ccc(OC)cc2c1C(=O)c1cc(OC)c(OC)c(OC)c1N | – | – | 102 nM | 1240 nM | – |
| COC(=O)c1[nH]c2ccccc2c1C(=O)c1cc(OC)c(OC)c(OC)c1N | – | – | 193 nM | 2380 nM | – |
| COc1ccc(/C=C\c2cc(OC)c(OC)c(OC)c2)cc1O [COMBRETASTATIN A4] | – | – | 25 nM | 260 nM | – |
| COc1ccc2c(C(=O)c3cc(OC)c(OC)c(OC)c3)c[nH]c2c1 | – | – | – | – | 7 nM |
| CCOC(=O)c1[nH]c2ccccc2c1C(=O)c1cc(OC)c(OC)c(OC)c1N | – | – | 480 nM | 5630 nM | – |
| COc1cc(Cc2c[nH]c3ccc(Cl)cc23)c(N)c(OC)c1OC | inactive | inactive | – | – | – |
| COc1cc(C(=O)c2c[nH]c3cc(F)ccc23)c(N)c(OC)c1OC | – | – | 42800 nM | 64200 nM | – |
| CCOC(=O)c1[nH]c2ccc(Cl)cc2c1C(=O)c1cc(OC)c(OC)c(OC)c1N | – | – | 590 nM | 6840 nM | – |
| COc1ccc2c(Cc3cc(OC)c(OC)c(OC)c3N)c[nH]c2c1 | – | – | 1830 nM | 74800 nM | – |
| COc1ccc2[nH]cc(Cc3cc(OC)c(OC)c(OC)c3N)c2c1 | – | – | 32800 nM | > 100000 nM | – |
| COc1cc(C(=O)c2c[nH]c3ccc(C)cc23)c(N)c(OC)c1OC | – | – | 12400 nM | > 100000 nM | – |
| COc1cc(C(=O)c2c[nH]c3ccc(Br)cc23)c(N)c(OC)c1OC | – | – | 360 nM | 3830 nM | – |
| COc1cc2[nH]cc(Cc3cc(OC)c(OC)c(OC)c3N)c2cc1OC | inactive | inactive | – | – | – |
| COc1cc(C(=O)c2c[nH]c3cccc(OC)c23)c(N)c(OC)c1OC | – | – | > 100000 nM | > 100000 nM | – |
| COc1ccc2c(C(=O)c3cc(OC)c(OC)c(OC)c3N)c[nH]c2c1 | – | – | 13 nM | 143 nM | – |
| COC(=O)c1[nH]c2ccc(Br)cc2c1C(=O)c1cc(OC)c(OC)c(OC)c1N | – | – | 124 nM | 1940 nM | – |
| CCOC(=O)c1[nH]c2ccc(OC)cc2c1C(=O)c1cc(OC)c(OC)c(OC)c1N | – | – | 540 nM | 5150 nM | – |
| COc1cc(Cc2c[nH]c3ccccc23)c(N)c(OC)c1OC | – | – | 45000 nM | > 100000 nM | – |

— ChEMBL document CHEMBL3792320, “Synthesis, biological evaluation and molecular docking studies of 2-amino-3,4,5-trimethoxyaroylindole derivatives as novel anticancer agents” (2016)
